In one test the target is WRN helicase (Homo sapiens (Human), UniProt Q14191). In words: In vitro enzymatic activity assay on WRN helicase (DNA dependent ATPase assay, ADP-Glo). Type of test: biochemical. To be noted: geometric means of at least 2 determinations; read-out: WRN ATPase Activity (IC50). The method in brief: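 DNA-dependent ATPase activity was measured by ADP-Glo luminescent ADP detection after a 30-min room-temperature reaction. The reaction contained 10 nM WRN (residues N517-P1238), 0.2 nM FLAP26 and 300 µM ATP at pH 7.5 with 2 mM MgCl2. Compounds were tested as 10-point half-log series in duplicate; IC50 values are geometric means from at least two independent experiments.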

The next test has as its system SW48 cells. The test can be described thus: Proliferation assay SW48 (CellTiterGlo, 96 hours). To be noted: Homo sapiens, SW48, read-out: Proliferation Assay SW48 (GI50).
For another test, the system named is DLD1-WRN-KO cells. The test can be described thus: Proliferation assay DLD1-WRN-KO (CellTiterGlo, 96 hours; off-target effects). The settings on record: Homo sapiens, read-out: Proliferation Assay DLD1-WRN-KO (GI50). (ATP-based viability assays read luminescence as a measure of living cells.)

Each structure is given as a SMILES string.

This note sets out measurements from US11878973B2, “Bicyclic compounds and their uses” (NOVARTIS AG, priority 2021, dated 2024).

Sequence of WRN helicase (Q14191 517-1238): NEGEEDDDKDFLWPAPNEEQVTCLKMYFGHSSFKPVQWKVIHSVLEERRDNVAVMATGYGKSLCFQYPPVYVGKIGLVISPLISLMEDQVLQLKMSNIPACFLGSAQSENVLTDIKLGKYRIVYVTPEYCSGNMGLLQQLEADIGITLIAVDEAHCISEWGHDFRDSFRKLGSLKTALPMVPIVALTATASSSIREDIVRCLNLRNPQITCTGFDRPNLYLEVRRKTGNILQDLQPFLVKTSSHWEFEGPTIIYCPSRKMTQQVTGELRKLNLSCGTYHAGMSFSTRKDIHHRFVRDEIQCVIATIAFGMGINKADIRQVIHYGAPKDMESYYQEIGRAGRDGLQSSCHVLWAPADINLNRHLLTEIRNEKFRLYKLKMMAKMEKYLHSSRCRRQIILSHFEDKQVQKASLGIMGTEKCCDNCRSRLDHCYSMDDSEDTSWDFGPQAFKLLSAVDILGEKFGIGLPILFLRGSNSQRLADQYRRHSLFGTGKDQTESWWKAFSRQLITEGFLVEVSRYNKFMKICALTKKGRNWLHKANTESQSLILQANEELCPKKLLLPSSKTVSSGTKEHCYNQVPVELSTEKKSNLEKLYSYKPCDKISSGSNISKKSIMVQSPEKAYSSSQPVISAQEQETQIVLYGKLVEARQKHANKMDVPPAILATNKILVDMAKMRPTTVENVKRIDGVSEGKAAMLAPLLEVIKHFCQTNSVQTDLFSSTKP

By IC50 is commonly meant the midpoint of a concentration-inhibition curve. Regarding `CCc1c(N2CCN(C(=O)c3ncccc3O)CC2)c(=O)n2nc(C3=CCCCO3)nc2n1CC(=O)Nc1ccc(C(F)(F)F)cc1` [Example 84, 2-(2-(3,4-dihydro-2H-pyran-6-yl)-5-ethyl-6-(4-(3-hydroxypicolinoyl)piperazin-1-yl)-7-oxo-[1,2,4]triazolo[1,5-a]pyrimidin-4(7H)-yl)-N-(4-(trifluoromethyl)phenyl)acetamide], the IC50 at WRN helicase came to 50 nM. The GI50 in the test on SW48 cells is 130 nM; with DLD1-WRN-KO cells it was greater than 10000 nM.

Turning to `CCc1c(N2CCN(C(=O)c3nccc(Cl)c3O)CC2)c(=O)n2nc(N3CCC[C@H](F)C3)nc2n1CC(=O)Nc1ccc(C(F)(F)F)cc1C` [Example 85, (S)-2-(6-(4-(4-chloro-3-hydroxypicolinoyl)piperazin-1-yl)-5-ethyl-2-(3-fluoropiperidin-1-yl)-7-oxo-[1,2,4]triazolo[1,5-a]pyrimidin-4(7H)-yl)-N-(2-methyl-4-(trifluoromethyl)phenyl)acetamide], the IC50 on WRN helicase stood at 70 nM. The figures for the GI50 with SW48 cells and in the test with DLD1-WRN-KO cells were 110 nM and greater than 10000 nM, respectively.

As for `CCc1c(N2CCN(C(=O)c3ncnc(C)c3O)[C@H](C)C2)c(=O)n2nc(C3=CCOCC3)nc2n1CC(=O)Nc1ccc(C(F)(F)F)cc1Cl` [Example 86, (R)—N-(2-chloro-4-(trifluoromethyl)phenyl)-2-(2-(3,6-dihydro-2H-pyran-4-yl)-5-ethyl-6-(4-(5-hydroxy-6-methylpyrimidine-4-carbonyl)-3-methylpiperazin-1-yl)-7-oxo-[1,2,4]triazolo[1,5-a]pyrimidin-4(7H)-yl)acetamide], the IC50 at WRN helicase is 90 nM. The values for the GI50 in the test with SW48 cells and in the test with DLD1-WRN-KO cells were 80 nM and greater than 10000 nM, respectively.

Regarding `CCc1c(N2CCN(C(=O)c3ncnc(C)c3O)C[C@@H]2C)c(=O)n2nc(C3=CCOCC3)nc2n1CC(=O)Nc1ccc(C(F)(F)F)cc1Cl` [Example 87, (S)—N-(2-chloro-4-(trifluoromethyl)phenyl)-2-(2-(3,6-dihydro-2H-pyran-4-yl)-5-ethyl-6-(4-(5-hydroxy-6-methylpyrimidine-4-carbonyl)-2-methylpiperazin-1-yl)-7-oxo-[1,2,4]triazolo[1,5-a]pyrimidin-4(7H)-yl)acetamide], the IC50 at WRN helicase is 110 nM. Further, the GI50 was 60 nM with SW48 cells and greater than 10000 nM in the test with DLD1-WRN-KO cells.

`CCc1c(N2CCN(C(=O)c3ncnc(C)c3O)C[C@H]2C)c(=O)n2nc(C3=CCOCC3)nc2n1CC(=O)Nc1ccc(C(F)(F)F)cc1Cl` [Example 88, (R)—N-(2-chloro-4-(trifluoromethyl)phenyl)-2-(2-(3,6-dihydro-2H-pyran-4-yl)-5-ethyl-6-(4-(5-hydroxy-6-methylpyrimidine-4-carbonyl)-2-methylpiperazin-1-yl)-7-oxo-[1,2,4]triazolo[1,5-a]pyrimidin-4(7H)-yl)acetamide]: the IC50 on WRN helicase came out at 370 nM. The GI50 in the test on SW48 cells was 760 nM; with DLD1-WRN-KO cells, greater than 10000 nM.

In the case of `Cc1c(N2CCN(C(=O)c3ncccc3O)[C@H](C)C2)c(=O)n2nc(C3=CCOCC3)nc2n1CC(=O)Nc1ccc(C(F)(F)F)cc1` [Example 89, (R)-2-(2-(3,6-dihydro-2H-pyran-4-yl)-6-(4-(3-hydroxypicolinoyl)-3-methylpiperazin-1-yl)-5-methyl-7-oxo-[1,2,4]triazolo[1,5-a]pyrimidin-4(7H)-yl)-N-(4-(trifluoromethyl)phenyl)acetamide], the 50% inhibitory concentration (IC50) on WRN helicase was found to be 40 nM. For the same compound, the GI50 with SW48 cells is 170 nM; with DLD1-WRN-KO cells, greater than 10000 nM.

In the case of `Cc1ccnc(C(=O)N2CCN(c3c(C)n(CC(=O)Nc4ccc(C(F)(F)F)cc4)c4nc(C5=CCOCC5)nn4c3=O)CC2)c1O` [Example 90, 2-(2-(3,6-dihydro-2H-pyran-4-yl)-6-(4-(3-hydroxy-4-methylpicolinoyl)piperazin-1-yl)-5-methyl-7-oxo-[1,2,4]triazolo[1,5-a]pyrimidin-4(7H)-yl)-N-(4-(trifluoromethyl)phenyl)acetamide], the IC50 at WRN helicase stood at 130 nM. For the same compound, the GI50 with SW48 cells is 300 nM; in the test on DLD1-WRN-KO cells, greater than 10000 nM.

With `Cc1ccc(O)c(C(=O)N2CCN(c3c(C)n(CC(=O)Nc4ccc(C(F)(F)F)cc4)c4nc(C5=CCOCC5)nn4c3=O)CC2)n1` [Example 91, 2-(2-(3,6-dihydro-2H-pyran-4-yl)-6-(4-(3-hydroxy-6-methylpicolinoyl)piperazin-1-yl)-5-methyl-7-oxo-[1,2,4]triazolo[1,5-a]pyrimidin-4(7H)-yl)-N-(4-(trifluoromethyl)phenyl)acetamide], at WRN helicase, the IC50 was 80 nM. The GI50 is 320 nM with SW48 cells and greater than 10000 nM in the test on DLD1-WRN-KO cells.

On to `CCc1c(N2CCN(C(=O)c3ncccc3O)CC2)c(=O)n2nc(C3=CCOCC3)nc2n1CC(=O)Nc1ccc(C(F)(F)F)cc1F` [Example 92, 2-(2-(3,6-dihydro-2H-pyran-4-yl)-5-ethyl-6-(4-(3-hydroxypicolinoyl)piperazin-1-yl)-7-oxo-[1,2,4]triazolo[1,5-a]pyrimidin-4(7H)-yl)-N-(2-fluoro-4-(trifluoromethyl)phenyl)acetamide], for which the half-maximal inhibitory concentration (IC50) at WRN helicase amounted to 50 nM. Further, the GI50 with SW48 cells was 80 nM; in the test with DLD1-WRN-KO cells, greater than 10000 nM.

With `CCc1c(N2CCN(C(=O)c3ncnc(C)c3O)CC2)c(=O)n2nc(C3=CCOCC3)nc2n1CC(=O)Nc1ccc(C(F)(F)F)c(F)c1C` [Example 93, 2-(2-(3,6-dihydro-2H-pyran-4-yl)-5-ethyl-6-(4-(5-hydroxy-6-methylpyrimidine-4-carbonyl)piperazin-1-yl)-7-oxo-[1,2,4]triazolo[1,5-a]pyrimidin-4(7H)-yl)-N-(3-fluoro-2-methyl-4-(trifluoromethyl)phenyl)acetamide], the IC50 on WRN helicase was determined as 80 nM. For the same compound, the GI50 with SW48 cells is 70 nM; in the test on DLD1-WRN-KO cells, greater than 10000 nM.

`CCc1c(N2CCN(C(=O)c3ncccc3O)CC2)c(=O)n2nc(C3=CCOCC3)nc2n1CC(=O)Nc1cc(F)c(C(F)(F)F)cc1C` [Example 94, 2-(2-(3,6-dihydro-2H-pyran-4-yl)-5-ethyl-6-(4-(3-hydroxypicolinoyl)piperazin-1-yl)-7-oxo-[1,2,4]triazolo[1,5-a]pyrimidin-4(7H)-yl)-N-(5-fluoro-2-methyl-4-(trifluoromethyl)phenyl)acetamide]: the IC50 at WRN helicase worked out at 40 nM. In addition, the GI50 was 50 nM in the test on SW48 cells and greater than 10000 nM in the test on DLD1-WRN-KO cells.

Take `CCc1c(N2CCN(C(=O)c3nccc(Cl)c3O)CC2)c(=O)n2nc(C3=CCOCC3)nc2n1CC(=O)Nc1cc(F)c(C(F)(F)F)cc1C` [Example 95, 2-(6-(4-(4-chloro-3-hydroxypicolinoyl)piperazin-1-yl)-2-(3,6-dihydro-2H-pyran-4-yl)-5-ethyl-7-oxo-[1,2,4]triazolo[1,5-a]pyrimidin-4(7H)-yl)-N-(5-fluoro-2-methyl-4-(trifluoromethyl)phenyl)acetamide]: the half-inhibitory concentration (IC50) on WRN helicase turned out to be 50 nM. Besides, the GI50 in the test on SW48 cells was 60 nM; in the test with DLD1-WRN-KO cells, greater than 10000 nM.

With `CCc1c(N2CCN(C(=O)c3ncccc3O)CC2)c(=O)n2nc(C3=CCOCC3)nc2n1CC(=O)Nc1ccc(C(F)(F)F)cc1Cl` [Example 96, N-(2-chloro-4-(trifluoromethyl)phenyl)-2-(2-(3,6-dihydro-2H-pyran-4-yl)-5-ethyl-6-(4-(3-hydroxypicolinoyl)piperazin-1-yl)-7-oxo-[1,2,4]triazolo[1,5-a]pyrimidin-4(7H)-yl)acetamide], the 50% inhibitory concentration (IC50) at WRN helicase was 60 nM. Besides, the GI50 is 60 nM with SW48 cells and greater than 10000 nM in the test with DLD1-WRN-KO cells.

As for `CCc1c(N2CCN(C(=O)c3ncc(C)c(F)c3O)CC2)c(=O)n2nc(C3=CCOCC3)nc2n1CC(=O)Nc1ccc(C(F)(F)F)cc1Cl` [Example 97, N-(2-chloro-4-(trifluoromethyl)phenyl)-2-(2-(3,6-dihydro-2H-pyran-4-yl)-5-ethyl-6-(4-(4-fluoro-3-hydroxy-5-methylpicolinoyl)piperazin-1-yl)-7-oxo-[1,2,4]triazolo[1,5-a]pyrimidin-4(7H)-yl)acetamide], the IC50 at WRN helicase amounted to 80 nM. For the same compound, the GI50 with SW48 cells was 70 nM; in the test with DLD1-WRN-KO cells it was greater than 10000 nM.

`CCc1c(N2CCN(C(=O)c3nccc(OC(F)(F)F)c3O)CC2)c(=O)n2nc(C3=CCOCC3)nc2n1CC(=O)Nc1ccc(C(F)(F)F)cc1Cl` [Example 98, N-(2-chloro-4-(trifluoromethyl)phenyl)-2-(2-(3,6-dihydro-2H-pyran-4-yl)-5-ethyl-6-(4-(3-hydroxy-4-(trifluoromethoxy)picolinoyl)piperazin-1-yl)-7-oxo-[1,2,4]triazolo[1,5-a]pyrimidin-4(7H)-yl)acetamide]: at WRN helicase, the IC50 stood at 40 nM. Besides, the GI50 with SW48 cells was 140 nM; in the test with DLD1-WRN-KO cells, greater than 10000 nM.

For `CCc1c(N2CCN(C(=O)c3ncccc3O)CC2)c(=O)n2nc(C3=CCOCC3)nc2n1CC(=O)Nc1cc(F)c(C(F)(F)F)nc1Cl` [Example 99, N-(2-chloro-5-fluoro-6-(trifluoromethyl)pyridin-3-yl)-2-(2-(3,6-dihydro-2H-pyran-4-yl)-5-ethyl-6-(4-(3-hydroxypicolinoyl)piperazin-1-yl)-7-oxo-[1,2,4]triazolo[1,5-a]pyrimidin-4(7H)-yl)acetamide], the concentration for half-maximal inhibition (IC50) on WRN helicase amounted to 180 nM. The GI50 in the test with SW48 cells was 280 nM; in the test with DLD1-WRN-KO cells it was greater than 10000 nM.

In the case of `CCc1c(N2CCN(C(=O)c3ncnc(C)c3O)CC2)c(=O)n2nc(C3=CCOCC3)nc2n1CC(=O)Nc1ccc(S(F)(F)(F)(F)F)cc1C` [Example 100, 2-(2-(3,6-dihydro-2H-pyran-4-yl)-5-ethyl-6-(4-(5-hydroxy-6-methylpyrimidine-4-carbonyl)piperazin-1-yl)-7-oxo-[1,2,4]triazolo[1,5-a]pyrimidin-4(7H)-yl)-N-(2-methyl-4-(pentafluorosulfanyl)phenyl)acetamide], on WRN helicase, the half-inhibitory concentration (IC50) came out at 60 nM. Besides, the GI50 with SW48 cells was 30 nM; with DLD1-WRN-KO cells it was greater than 10000 nM.
